The METLIN SMRT retention time set (Domingo-Almenara et al. 2019)

Assay: gradient 5% acetonitrile 3 min, to 50% in 2 min, to 85% in 15 min, held 3 min, 100 µL/min
Conditions: column: Zorbax Extend-C18 2.1 x 50 mm; eluents: water / acetonitrile, 0.1% formic acid
Summary of the method: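 The system's dead and dwell volumes were 40 μL and 900 μL, with a Zorbax Extend-C18 column (2.1 × 50 mm, 1.8 μm) run at 100 μL/min in water and acetonitrile containing 0.1% formic acid each. Pure standards were analyzed in mixtures of ~100 molecules by HPLC–quadrupole time-of-flight mass spectrometry in positive and negative ionization mode. Retention time was assigned from computationally picked, manually inspected adduct peaks.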

RP-LC retention time	Compound
1030 s	Cc1nc(-c2cc(S(=O)(=O)Nc3ccc(Cl)cc3F)c(C)s2)cs1
849 s	COc1ccccc1-c1noc(C2CCCN2C(=O)c2cccs2)n1 (stereo not given)
981 s	CCOC(=O)c1ccc(NC(=O)c2cc3c(=O)n(C)c4ccccc4n3n2)cc1
767 s	CCOc1ccc2nc(C(=O)Nc3ccc(N4CCOCC4)cc3)cn2n1
740 s	Cc1ccc(F)cc1S(=O)(=O)N1CCC(n2cnnc2C(C)C)CC1
893 s	Cc1ccc(C)c(CNC(=O)c2cccn2Cc2noc(C)n2)c1
988 s	Cc1nc(C(=O)Nc2cccc(C(F)(F)F)c2)c(C)o1
799 s	COCCN1C(=O)CCc2cc(NC(=O)COc3cccc(C)c3)ccc21
1290 s	Cn1nc(-c2nnc(-c3ccc(F)cc3)o2)c2c1CCN(S(=O)(=O)c1ccc3c(c1)CCC3)C2
864 s	O=C(CCc1csc(NC(=O)Nc2ccccc2)n1)Nc1nc2ccccc2s1
851 s	O=C(Cn1nc2c(cc1=O)CCCC2)Nc1nc(-c2ccc3c(c2)OCO3)cs1
854 s	CCc1nc(-c2csc(S(=O)(=O)N3CCC(C(=O)NC(C)CC)CC3)c2)no1 (stereo not given)
713 s	CNC(=O)c1ccc(-c2nc3cc(NS(=O)(=O)c4ccc(C(C)C)cc4)ccc3n2C)cc1
773 s	O=C(NCCc1ccco1)C1CCCN(c2ccc(=O)n(-c3ccc(F)cc3)n2)C1 (stereo not given)
656 s	COc1ccc(S(=O)(=O)Nc2ccc(-c3cn4ccc(C)nc4n3)cc2)cc1
806 s	O=C(NCc1ccc(F)cc1F)c1ccc2c(c1)nc1n2CCN(C2CCCCC2)C1=O
725 s	COc1ccc(NC(=O)N2CCC(n3c(-c4ccoc4)nc4cccnc43)C2)cc1F (stereo not given)
1190 s	C=CCn1c2ccccc2c2nnc(SC(CC)C(=O)Nc3nc(-c4ccccc4)cs3)nc21 (stereo not given)
697 s	Cc1ccc(-c2cc3c(=O)n(Cc4noc(CN5CCCC5)n4)ccn3n2)cc1C
611 s	COc1ccccc1-c1noc(C2CCCN2C(=O)CSc2ccncc2)n1 (stereo not given)
756 s	CCC(C(=O)Nc1ccc(C)cc1)n1cnc2nc3c(cc2c1=O)CCCC3 (stereo not given)
1090 s	Cc1ccc(-c2csc3c(=O)n(CC(=O)OC(C)(C)C)cnc23)cc1
1060 s	Cc1nc(-c2cc(S(=O)(=O)NC(C)Cc3ccco3)c(C)s2)sc1C (stereo not given)
1110 s	O=S(=O)(c1cccc(F)c1)N1CCC(c2noc(-c3ccc(F)cc3)n2)CC1
683 s	CCOC(=O)CCC(=O)Nc1nnc(-c2cc(C)oc2C)o1
685 s	Cc1cccc(NC(=O)N2CCC(c3cc(N)on3)CC2)c1C

RP-LC retention time	Compound
915 s	Cc1ccc(CNC(=O)Cc2nnc(-c3ccc4ncccc4c3)o2)cc1C
1000 s	CCC(C)NC(=O)c1c2c(cn(-c3ccc(C)cc3)c1=O)C(=O)CC(C)(C)C2 (stereo not given)
731 s	Cc1nc2c(c(C)nn2C(C)(C)C)c(C)c1CCC(=O)N1CCN(c2ccccn2)CC1
902 s	COc1ccc(Cl)cc1C(=O)Nc1cc(-c2cccnc2)no1
706 s	CCCCNC(=O)CCc1c(C)n(C)c2nc(-c3ccccc3)nn2c1=O
864 s	CCCc1nc(-c2c(C)cc(C)nc2NC(=O)c2ccc(F)cc2)no1
642 s	Cc1ccc(C(=O)NCC2CCCO2)cc1 (stereo not given)
814 s	Cc1c(Cl)cccc1N1C(=O)CN(S(C)(=O)=O)CC1(C)C(=O)NCc1ccc(F)cc1 (stereo not given)
746 s	Cc1ccc(C)c(NC(=O)C(=O)NCC(c2ccc3c(c2)CCCN3C)N2CCCC2)c1 (stereo not given)
625 s	COc1ccc(NC(=O)c2c(C)oc3c2C2=NCCN2C=N3)cc1Cl
669 s	CCOC(=O)c1ccc(Nc2c(C(=O)N3CCCC(C)C3)cnc3nc(C)ccc23)cc1 (stereo not given)
809 s	CCc1ccc(C(=O)N2CCC(n3c(-c4ccoc4)nc4cccnc43)C2)cc1 (stereo not given)
1130 s	CCn1c(C(=O)NCc2ccc(OC)cc2)cc2sc(Cl)cc21
823 s	CC(C)N1C(=O)c2cccnc2Sc2cc(NC(=O)Cc3ccsc3)ccc21
636 s	COCC1(F)CCN(Cc2c(-c3cc(C)ccc3C)nc3cc(C)ccn23)CC1
1450 s	CC(C)(C)c1cc(C(=O)Nc2cc(F)ccc2F)nc2ccnn12
937 s	Cc1ccsc1C(=O)NC1(c2nc(-c3cccnc3)no2)CCCCC1
559 s	Cn1ncc2c(N3CCSCC3)nc(C(=O)NCCc3ccncc3)nc21
858 s	CCOc1ccccc1NC(=O)N1CCCC1c1nc(-c2cccc(C)c2)no1 (stereo not given)
810 s	COc1ccc(C(=O)N(Cc2cc(OC)c(OC)c(OC)c2)CC2CCCO2)cc1 (stereo not given)
954 s	Cc1ccc2c(c1)N(C(=O)Cn1cnc(-c3nc(-c4ccccc4)cs3)c1)CCO2
699 s	Cc1ccc(-c2nc3n(CC(=O)N4CCOCC4)c4c(c(=O)n3n2)CCC4)cc1
830 s	CCc1noc(NC(C)=O)c1-c1ccc(C)c(S(=O)(=O)Nc2ccc(C)cc2)c1
861 s	COc1ccc(S(=O)(=O)NCc2ccc3c(c2)CCN3C(=O)C(C)C)cc1
661 s	Cc1cc(=O)n(CC(=O)Nc2ccccc2Cl)c(N2CCCC2)n1

The remaining lines, values behind:

Compound	RP-LC retention time
CN1[C@@H]2CC[C@H]1CC(OC(=O)C1C=Nc3ccccc31)C2 (stereo not given in full)	656 s
CC1CCCN(c2ccn3c(=O)n(CC(=O)Nc4cccc(Cl)c4)nc3n2)C1 (stereo not given)	835 s
O=C(C1CCN(c2nc3ccc(-c4cncnc4)nc3s2)CC1)N1CCCCC1	787 s
COc1ccc(C(=S)N2CCN(c3ccccc3Cl)CC2)cc1OC	1260 s
O=C(CN1C(=O)CCCc2cc(S(=O)(=O)N3CCCCC3)ccc21)NC1CCCCC1	880 s
Cn1cccc1Cc1nnc(SCC(=O)Nc2ccccc2F)n1CCc1ccccc1	850 s
CN1C(=O)c2ccccc2Sc2ccc(NC(=O)N3CCC(C(N)=O)CC3)cc21	1430 s
Cc1cc2c(cc(C(=O)N3CCC(C(=O)N4CCCC4)CC3)n2Cc2c(F)cccc2Cl)o1	897 s
O=C(NCC(O)c1ccsc1)Nc1cccc(Cl)c1 (stereo not given)	734 s
COC(=O)c1ccc(NC(=O)N2CCCC2c2ccc(OC)cc2)cc1 (stereo not given)	906 s
CC(C(=O)NCc1nn(C)c2ccccc12)c1ccccc1 (stereo not given)	792 s
NC(=O)[C@@H]1C[C@H](Oc2ccccc2)CN1C1CCCC1	584 s
Cc1ccc(-c2ccc(=O)n(CCCC(=O)N3CCc4ccccc43)n2)cc1	880 s
O=C(c1ccc(N2CCNC(c3ccccc3)C2)nc1)N1CCSCC1 (stereo not given)	606 s
CCCN(CCC)C1COc2cccc(OC)c2C1 (stereo not given)	722 s
O=C(NCc1ccccc1)Nc1ccc2nc(-c3ccccc3)cc(N3CCOCC3)c2c1	709 s
Cc1[nH]c(C)c(S(=O)(=O)N2CCC(C(=O)N(C)C3CCCCC3)CC2)c1C(=O)N1CCCCC1	762 s
Cc1noc(/C=C\c2ccc(S(=O)(=O)N3CCN(c4ccccn4)CC3)cc2)c1NC(=O)C1CC1	661 s
COC[C@@H]1CN(c2cnccn2)C[C@H]1C(=O)NCCn1cccn1	564 s
CC(C)CCNC(=O)C1(C)CN(S(=O)(=O)c2ccccc2)CC(=O)N1c1ccc(Cl)cc1 (stereo not given)	992 s

Compound	RP-LC retention time
Cn1cc(-c2ccncc2)cc1C(=O)N1CCN(c2ccccc2Cl)CC1	671 s
COc1ccc(NC(=O)c2ccc(Cl)s2)c2ccccc12	920 s
Cc1cc(C)cc(C(=O)N2CC=C(C(=O)NC3CC3)CC2)c1	755 s
O=C(C1CCN(c2cnc3nccnc3c2)CC1)N1CCN(c2ccc(F)cc2)CC1	723 s
CC1CCCN(S(=O)(=O)c2cc(C(=O)Nc3ccc(F)c(Cl)c3)n(C)c2)C1 (stereo not given)	1170 s
O=C(COc1ccc(F)cc1)N1CCCCC1CCN1CCCCC1 (stereo not given)	648 s
CCOC(=O)C(=O)Nc1ccc(OC)c(OC)c1	650 s
CCCS(=O)(=O)N1CC(n2cc(C(=O)NCC3CC3)nn2)C1	722 s
CSc1ccc(CNC(=O)C2CCN(c3c(C#N)cnc4ccc(Cl)cc34)CC2)cc1	960 s
COc1ccccc1NC(=O)N1CCC(n2c(C(F)(F)F)nc3cccnc32)CC1	898 s
O=C(Nc1cnc(N2CCCCC2)nc1)c1ccsc1	800 s
CCn1ccc2sc(C)c(C(=O)O)c2c1=O	702 s
CCOc1ccccc1C(=O)n1nc(C)c(S(=O)(=O)N2CCC(C)CC2)c1C	1230 s
COc1ccc(CN2CCCN(c3cc(-c4ccccc4)[nH]n3)CC2)c(O)c1	620 s
O=C(CCc1nc2ccccc2s1)N1[C@H]2CC[C@@H]1c1cnc(-c3ccc(F)cc3)nc1C2	960 s
COc1ccc(C(=O)CN(Cc2ccccc2)C2=NCCS2)cc1	600 s
CC(=O)Nc1ccc(C2(C(=O)NCc3ccccc3Cl)CCC2)cc1	802 s
O=C(Cn1c(=O)c2cccn2c2ccc(F)cc21)NCCCN1CCCCCC1	627 s
COCC(=O)N1CCCN(c2cc(=O)n(C(C)C)c(=O)n2C(C)C)CC1	678 s
